Results published in patent US10350213B2 (AI Therapeutics, Inc., priority 2015, dated 2019).
Like-named read-outs stand apart in the source and are kept apart here.

What was measured:
[1] = system: SW1088 (Human neuroblastoma); experiment: CellTiterGlo cell viability assay; format: cell-based
[2] = system: LnCap (Human prostate cancer); experiment: CellTiterGlo cell viability assay; format: cell-based
[3] = system: SUDHL-6 human DLBCL cancer xenograft; experiment: Subcutaneous SUDHL-6 human DLBCL cancer xenograft model; format: in vivo, NOD-SCID mice
Description: The tumor cells were sub-cultured twice weekly and harvested during exponential growth for tumor inoculation. NOD-SCID mice were γ-irradiated 24 hrs before inoculation. Each mouse was inoculated subcutaneously in the right flank with SU-DHL-6 tumor cells (5×10^6) in 0.1 ml of PBS with Matrigel (1:1). The tumors were then grown to a mean size of approximately 80-120 mm^3 and the mice were then split into 5 groups and treated as detailed in the Table 5.
Tumor size was measured twice a week in two dimensions using a caliper, and the volume is expressed in mm^3 using the formula: V=0.5 a×b^2 where a and b are the long and short diameters of the tumor, respectively.
Each mouse was inoculated subcutaneously in the right flank with SU-DHL-6 tumor cells (5×10^6) in 0.1 ml of PBS with Matrigel (1:1). The tumors were then grown to a mean size of approximately 80-120 mm^3 and the mice were then split into 6 groups and treated as detailed in the Table 6.

[4] = system: THP1 (Human acute monocytic leukemia); experiment: CellTiterGlo cell viability assay; format: cell-based; settings: THP-1
[5] = system: RPMI-8226 (Human plasmacytoma); experiment: CellTiterGlo cell viability assay; format: cell-based
[6] = system: peripheral blood mononuclear cells; experiment: Vacuole formation in peripheral blood mononuclear cells; format: cell-based; settings: treatment for 24 h
[7] = system: NCI-H1781 (Human bronchioalveolar); experiment: CellTiterGlo cell viability assay; format: cell-based
[8] = system: PC-3 (Human prostate cancer); experiment: CellTiterGlo cell viability assay; format: cell-based
[9] = target: T1, PIKfyve (Homo sapiens, UniProt Q9Y2I7); experiment: Chemical capture mass spectrometry (CCMS); format: binding; settings: apilimod as competitor ligand
T1 construct: whole cell lysate prepared from human neuroglioma cells; endogenous in cells; host or cells: human neuroglioma cells (whole cell lysate)
T1 sequence (Q9Y2I7 whole entry): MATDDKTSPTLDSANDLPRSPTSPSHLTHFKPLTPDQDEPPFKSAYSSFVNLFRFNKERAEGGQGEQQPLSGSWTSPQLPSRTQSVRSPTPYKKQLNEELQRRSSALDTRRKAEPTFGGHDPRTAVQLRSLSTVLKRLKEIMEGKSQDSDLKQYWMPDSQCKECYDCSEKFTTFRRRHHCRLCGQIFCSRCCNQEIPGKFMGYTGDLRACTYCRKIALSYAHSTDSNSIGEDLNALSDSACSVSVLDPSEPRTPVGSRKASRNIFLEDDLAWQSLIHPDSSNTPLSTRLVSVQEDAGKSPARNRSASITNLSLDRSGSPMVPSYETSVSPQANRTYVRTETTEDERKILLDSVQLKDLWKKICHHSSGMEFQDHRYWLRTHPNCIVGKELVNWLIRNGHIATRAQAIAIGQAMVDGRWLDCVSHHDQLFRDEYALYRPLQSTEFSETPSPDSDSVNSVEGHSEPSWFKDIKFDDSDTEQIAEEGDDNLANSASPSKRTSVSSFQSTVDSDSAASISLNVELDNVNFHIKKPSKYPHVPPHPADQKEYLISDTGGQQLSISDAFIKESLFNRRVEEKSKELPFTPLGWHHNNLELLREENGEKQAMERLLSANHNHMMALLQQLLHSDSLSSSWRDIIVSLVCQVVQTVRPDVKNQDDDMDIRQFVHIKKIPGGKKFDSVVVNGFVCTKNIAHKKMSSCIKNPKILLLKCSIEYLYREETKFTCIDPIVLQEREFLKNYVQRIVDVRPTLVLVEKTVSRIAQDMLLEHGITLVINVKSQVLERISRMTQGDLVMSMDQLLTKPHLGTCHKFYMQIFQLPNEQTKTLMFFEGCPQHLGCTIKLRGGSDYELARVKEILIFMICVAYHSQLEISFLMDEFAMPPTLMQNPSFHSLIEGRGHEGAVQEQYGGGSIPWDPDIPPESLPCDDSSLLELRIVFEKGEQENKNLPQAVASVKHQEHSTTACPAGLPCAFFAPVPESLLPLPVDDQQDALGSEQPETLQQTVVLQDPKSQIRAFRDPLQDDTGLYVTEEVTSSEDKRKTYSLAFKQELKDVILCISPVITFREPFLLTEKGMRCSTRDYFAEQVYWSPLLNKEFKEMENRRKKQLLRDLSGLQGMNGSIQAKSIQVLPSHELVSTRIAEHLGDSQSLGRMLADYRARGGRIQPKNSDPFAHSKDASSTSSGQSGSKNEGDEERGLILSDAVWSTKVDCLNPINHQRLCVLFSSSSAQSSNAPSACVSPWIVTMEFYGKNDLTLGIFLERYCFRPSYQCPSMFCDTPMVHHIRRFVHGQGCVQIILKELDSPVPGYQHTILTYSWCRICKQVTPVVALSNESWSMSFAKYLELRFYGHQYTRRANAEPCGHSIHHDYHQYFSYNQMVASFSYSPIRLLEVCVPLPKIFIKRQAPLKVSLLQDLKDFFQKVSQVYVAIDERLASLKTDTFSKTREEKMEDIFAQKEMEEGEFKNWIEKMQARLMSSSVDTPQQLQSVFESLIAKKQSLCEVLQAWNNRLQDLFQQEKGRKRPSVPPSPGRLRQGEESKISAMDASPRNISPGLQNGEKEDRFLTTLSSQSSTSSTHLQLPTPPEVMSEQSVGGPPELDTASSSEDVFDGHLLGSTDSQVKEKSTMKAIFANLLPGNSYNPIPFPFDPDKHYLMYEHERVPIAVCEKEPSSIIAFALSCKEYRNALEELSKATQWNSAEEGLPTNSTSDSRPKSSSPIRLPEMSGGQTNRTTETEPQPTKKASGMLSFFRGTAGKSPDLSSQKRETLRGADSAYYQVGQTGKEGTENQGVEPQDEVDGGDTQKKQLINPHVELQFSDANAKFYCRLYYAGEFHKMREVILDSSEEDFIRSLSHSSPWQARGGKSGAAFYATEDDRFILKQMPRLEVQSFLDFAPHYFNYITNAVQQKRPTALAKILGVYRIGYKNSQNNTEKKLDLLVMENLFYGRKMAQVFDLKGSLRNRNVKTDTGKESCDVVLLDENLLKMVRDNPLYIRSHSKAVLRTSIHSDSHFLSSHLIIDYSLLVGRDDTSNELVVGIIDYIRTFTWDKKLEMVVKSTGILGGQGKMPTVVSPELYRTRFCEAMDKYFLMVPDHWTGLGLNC
Description: (§1) This work was performed at Caprotec Bioanalytics GmbH, Berlin Germany. See Michaelis et al., J. Med. Chem., 55 3934-44 (2012) and references cited therein. […] Capture conditions were optimized in whole cell lysate, e.g. minimization of non-specific interactions of the proteins with capture compounds, concentration of reagents and proteins to obtain maximum binding of proteins and capture compounds, etc. […] These specific binders were further subjected to stringent data analysis criteria to determine specificity after unbiased data evaluation. Specific protein binders were ranked according to their fold change (FC) values in the capture experiments.

[10] = target: T2, Vac14 (Homo sapiens, UniProt Q08AM6); experiment: Chemical capture mass spectrometry (CCMS); format: binding; settings: apilimod as competitor ligand
T2 construct: whole cell lysate prepared from human neuroglioma cells; endogenous in cells; host or cells: human neuroglioma cells (whole cell lysate)
T2 sequence (Q08AM6 whole entry): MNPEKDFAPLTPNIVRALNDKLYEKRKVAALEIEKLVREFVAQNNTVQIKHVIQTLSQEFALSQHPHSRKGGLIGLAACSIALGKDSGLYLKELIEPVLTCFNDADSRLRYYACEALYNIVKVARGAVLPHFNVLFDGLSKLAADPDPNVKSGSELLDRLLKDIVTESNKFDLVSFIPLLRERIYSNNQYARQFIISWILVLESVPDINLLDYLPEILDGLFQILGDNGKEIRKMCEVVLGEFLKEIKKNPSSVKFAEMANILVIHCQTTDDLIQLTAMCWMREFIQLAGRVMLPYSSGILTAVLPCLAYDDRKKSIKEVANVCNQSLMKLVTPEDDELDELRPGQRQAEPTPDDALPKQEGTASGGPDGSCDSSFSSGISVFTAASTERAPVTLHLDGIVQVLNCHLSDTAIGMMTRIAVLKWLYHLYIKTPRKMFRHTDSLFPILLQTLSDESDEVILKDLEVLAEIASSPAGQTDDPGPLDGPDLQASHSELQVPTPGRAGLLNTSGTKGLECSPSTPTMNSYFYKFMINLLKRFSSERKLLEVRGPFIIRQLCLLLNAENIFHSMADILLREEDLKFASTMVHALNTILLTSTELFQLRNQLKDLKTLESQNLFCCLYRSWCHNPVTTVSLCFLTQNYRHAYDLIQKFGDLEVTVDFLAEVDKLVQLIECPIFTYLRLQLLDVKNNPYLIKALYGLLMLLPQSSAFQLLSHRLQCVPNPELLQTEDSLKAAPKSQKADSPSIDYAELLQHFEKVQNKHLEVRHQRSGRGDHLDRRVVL
T2 sequence (Q9Y2I7 2-2098 partner): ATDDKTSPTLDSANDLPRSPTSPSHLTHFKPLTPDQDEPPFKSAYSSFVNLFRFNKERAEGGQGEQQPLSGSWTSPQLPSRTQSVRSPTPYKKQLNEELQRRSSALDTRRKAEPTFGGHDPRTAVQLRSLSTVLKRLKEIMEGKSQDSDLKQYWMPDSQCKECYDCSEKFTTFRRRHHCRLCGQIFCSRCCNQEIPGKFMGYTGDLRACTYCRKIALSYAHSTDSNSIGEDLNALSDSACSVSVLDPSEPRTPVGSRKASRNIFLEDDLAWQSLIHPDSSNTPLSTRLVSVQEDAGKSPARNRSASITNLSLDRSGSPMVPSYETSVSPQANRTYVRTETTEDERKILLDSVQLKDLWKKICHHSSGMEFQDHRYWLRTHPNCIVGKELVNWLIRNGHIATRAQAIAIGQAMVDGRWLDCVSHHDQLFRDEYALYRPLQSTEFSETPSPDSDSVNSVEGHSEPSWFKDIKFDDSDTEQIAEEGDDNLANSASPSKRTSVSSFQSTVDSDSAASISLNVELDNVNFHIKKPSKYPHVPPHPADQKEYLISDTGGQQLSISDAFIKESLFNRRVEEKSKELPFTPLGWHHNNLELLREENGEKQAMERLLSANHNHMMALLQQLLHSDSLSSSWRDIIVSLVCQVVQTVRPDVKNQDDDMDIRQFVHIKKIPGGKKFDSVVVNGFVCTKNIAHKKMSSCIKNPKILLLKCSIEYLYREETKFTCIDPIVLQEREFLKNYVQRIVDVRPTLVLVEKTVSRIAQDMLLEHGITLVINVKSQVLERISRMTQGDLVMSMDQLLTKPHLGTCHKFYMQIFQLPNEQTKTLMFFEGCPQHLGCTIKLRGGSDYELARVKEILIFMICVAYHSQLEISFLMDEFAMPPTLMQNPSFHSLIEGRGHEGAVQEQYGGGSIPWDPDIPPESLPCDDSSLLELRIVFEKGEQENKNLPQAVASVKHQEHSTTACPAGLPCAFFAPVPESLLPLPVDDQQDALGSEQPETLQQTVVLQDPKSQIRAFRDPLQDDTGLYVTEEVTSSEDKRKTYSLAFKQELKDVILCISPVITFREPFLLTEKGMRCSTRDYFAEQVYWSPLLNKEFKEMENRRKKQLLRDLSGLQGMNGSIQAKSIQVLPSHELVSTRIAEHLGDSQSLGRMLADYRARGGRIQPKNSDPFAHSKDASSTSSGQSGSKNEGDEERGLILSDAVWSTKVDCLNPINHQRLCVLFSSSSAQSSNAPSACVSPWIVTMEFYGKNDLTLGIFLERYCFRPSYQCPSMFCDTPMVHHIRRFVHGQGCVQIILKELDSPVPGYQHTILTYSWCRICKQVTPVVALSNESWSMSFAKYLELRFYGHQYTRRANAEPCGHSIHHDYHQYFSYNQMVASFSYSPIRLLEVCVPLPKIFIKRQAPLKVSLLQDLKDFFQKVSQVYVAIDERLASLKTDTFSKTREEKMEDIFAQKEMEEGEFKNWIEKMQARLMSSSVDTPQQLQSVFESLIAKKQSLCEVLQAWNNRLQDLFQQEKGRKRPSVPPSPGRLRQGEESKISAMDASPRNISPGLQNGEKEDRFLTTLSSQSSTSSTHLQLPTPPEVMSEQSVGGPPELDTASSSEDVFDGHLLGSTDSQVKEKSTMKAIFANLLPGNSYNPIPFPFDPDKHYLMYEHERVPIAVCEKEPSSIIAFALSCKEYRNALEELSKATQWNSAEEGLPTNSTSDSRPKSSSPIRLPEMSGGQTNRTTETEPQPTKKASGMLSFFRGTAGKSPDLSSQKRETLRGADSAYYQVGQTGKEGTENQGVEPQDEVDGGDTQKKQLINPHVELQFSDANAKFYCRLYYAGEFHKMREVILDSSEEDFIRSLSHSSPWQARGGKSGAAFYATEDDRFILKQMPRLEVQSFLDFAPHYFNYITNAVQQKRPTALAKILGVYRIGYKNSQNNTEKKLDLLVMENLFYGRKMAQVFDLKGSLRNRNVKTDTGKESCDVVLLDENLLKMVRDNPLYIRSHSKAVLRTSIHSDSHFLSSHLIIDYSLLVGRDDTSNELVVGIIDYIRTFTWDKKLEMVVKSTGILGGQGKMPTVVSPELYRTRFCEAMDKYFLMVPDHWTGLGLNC
Description: as §1

[11] = system: SW780 (Human Bladder carcinoma (GATOR−/−)); experiment: CellTiterGlo cell viability assay; format: cell-based
[12] = system: synovial IL-12 and IL-23 expression; settings: patients with rheumatoid arthritis; Krauz et al. 2012; cited from earlier work
[13] = Phase 1 dose-escalation (QD/BID) study in normal healthy volunteers; format: in vivo, human; settings: for Cmax: oral, human plasma, mean
[14] = system: TSC2−/− mouse embryonic fibroblasts (TSC2−/− MEF) cells; experiment: High throughput cell viability screen (CellTiter-Glo); format: cell-based; settings: 72 h
Description: Briefly, test compounds (5 μl stock solution, 6×desired final well concentration) were dispensed to 384-well assay plates, TSC2−/− MEF cells (1000 cells per well in 25 μL of media) were added to the plates and the plates were incubated for 72 h (3 days) at 37° C. under an atmosphere of 5% CO2 in a humidified incubator for 3 days. Cell viability was determined with CellTiter-Glo® luminescence assay (Promega) per the manufacturer's instructions. Viability was expressed as a percentage of untreated control cells.

[15] = system: DU145 (Human prostate cancer); experiment: CellTiterGlo cell viability assay; format: cell-based; settings: DU-145
[16] = system: H4 neuroglioma cells; experiment: Endolysosomal (vacuole) phenotype, DIC images; format: cell-based, Human; settings: 100 nM apilimod, 24 hrs
Source text: PIKfyve produces the lipid products PI(3,5)P2 and PI5P, which in turn serve to establish membrane identity and control endolysosomal dynamics. Studies have shown that the PI(3,5)P2 depletion arising from inhibition of PIKfyve produces a swollen endolysosome phenotype. […] This phenotype was reversible, and cancer cell lines reverted to normal appearance within 3-4 days after drug removal.

[17] = system: IL-12/IL-23 synthesis; settings: oral administration; patients with psoriasis; Wada et al. 2012; cited from earlier work
[18] = system: SUDHL-4 (Human Diffuse Large B Cell Lymphoma -GCB); experiment: CellTiterGlo cell viability assay; format: cell-based
[19] = system: AsPC1 (Human pancreatic cancer); experiment: CellTiterGlo cell viability assay; format: cell-based
[20] = system: WSU-DLCL2 (Human Diffuse Large B Cell Lymphoma -GCB); experiment: CellTiterGlo cell viability assay; format: cell-based

Cc1cccc(/C=N/Nc2cc(N3CCOCC3)nc(OCCc3ccccn3)n2)c1 [apilimod]
IC50 [1]: > 10 µM
IC50 [2]: 3 µM
tumor growth inhibition ([3]; 75 mg/kg apilimod free base p.o. QD×5, 2 days off, QD×5, 31 days): 57%
effect on body weight ([3]; all apilimod treatment arms, i.v. and p.o., 29 days): negligible effect on body weight
reduction of tumor size ([3]; apilimod dimesylate 67.5 mg/kg (47 mg/kg free base) i.v. QD×5, 2 days off, QD×5, 29 days): 58%
reduction of tumor growth ([3]; apilimod free base p.o. 150 mg/kg single dose (QD×5, 2 days off), 29 days): 64%
reduction of tumor growth ([3]; apilimod free base p.o. 150 mg/kg split dose (75 mg/kg BID×5, 2 days off, BID×5), 29 days): 68%
IC50 [4]: > 10 µM
IC50 [5]: > 10 µM
vacuole formation [6]: induces vacuole formation
IC50 [7]: > 20 µM
IC50 [8]: 10 µM
log2 (FC) ([9]; capture compound 0.1 μM, human neuroglioma whole cell lysate): 6.3
log2 (FC) ([9]; capture compound 0.5 μM): 6.2
log2 (FC) ([9]; capture compound 1.0 μM): 4.1
log2 (FC) ([9]; capture compound 2.0 μM): 4.3
log2 (FC) ([10]; capture compound 0.1 μM): 6.2
log2 (FC) ([10]; capture compound 0.5 μM): 5.6
log2 (FC) ([10]; capture compound 1.0 μM): Inf.
log2 (FC) ([10]; capture compound 2.0 μM): 3.9
IC50 [11]: 1 µM
effect on synovial IL-12 and IL-23 expression [12]: failed to alter synovial IL-12 and IL-23 expression
share of the 24 hr period with plasma concentrations above 50 ng/ml ([13]; 50 ng/ml equal to 125 nM, 105 mg BID): ~50%
safety profile ([13]; 105 mg BID, humans): tolerable safety profile
Cmax ([13]; Treatment E: 70 mg ×2, total 140 mg, read-out: PM Cmax): 0.11 µg/mL
Cmax ([13]; human, plasma, po, 7 mg, Treatment A: 7 mg once, total 7 mg, read-out: AM Cmax): 0.0108 µg/mL
Cmax ([13]; human, plasma, po, 7 mg, Treatment B: 7 mg ×2, total 14 mg, read-out: AM Cmax): 0.0127 µg/mL
Cmax ([13]; human, plasma, po, 7 mg, Treatment B: 7 mg ×2, total 14 mg, read-out: PM Cmax): 0.00818 µg/mL
Cmax ([13]; human, plasma, po, 14 mg, Treatment C: 14 mg ×2, total 28 mg, read-out: AM Cmax): 0.0182 µg/mL
Cmax ([13]; human, plasma, po, 14 mg, Treatment C: 14 mg ×2, total 28 mg, read-out: PM Cmax): 0.0107 µg/mL
Cmax ([13]; human, plasma, po, 35 mg, Treatment D: 35 mg ×2, total 70 mg, read-out: AM Cmax): 0.0718 µg/mL
Cmax ([13]; human, plasma, po, 35 mg, Treatment D: 35 mg ×2, total 70 mg, read-out: PM Cmax): 0.063 µg/mL
Cmax ([13]; human, plasma, po, 70 mg, Treatment E: 70 mg ×2, total 140 mg, read-out: AM Cmax): 0.145 µg/mL
Cmax ([13]; human, plasma, po, 105 mg, Treatment F: 105 mg ×2, total 210 mg, read-out: AM Cmax): 0.192 µg/mL
Cmax ([13]; human, plasma, po, 105 mg, Treatment F: 105 mg ×2, total 210 mg, read-out: PM Cmax): 0.149 µg/mL
viability at 0.5 µM ([14]; MEF-EV, 0.5 μM, Mean+/−StDev, n=3, read-out: cell viability (percentage of untreated control cells)): 2.16%
viability at 5 µM ([14]; MEF-EV, 5 μM, Mean+/−StDev, n=3, read-out: cell viability (percentage of untreated control cells)): 1.94%
IC50 ([14]; TSC2−/− MEF cells, 10 point dose-response): 0.0195 µM
IC50 [15]: > 2 µM
cell phenotype [16]: striking swollen endolysosomal (vacuole) phenotype
immunomodulatory activity [17]: showed immunomodulatory activity
IC50 ([18]; Homo sapiens, 72 h, SU-DHL-4, three-day assay, read-out: IC50 (nM) SU-DHL-4): 23 nM
IC50 ([18]; Homo sapiens, SU-DHL-4, 72 h, SUDHL-4, 3-day CellTiterGlo assay, read-out: IC50): 50 nM
IC50 ([18]; SU-DHL-4, SUDHL-4, Human DLBCL-GCB, read-out: IC50): 25 nM
IC50 [19]: > 2 µM
IC50 ([20]; Homo sapiens, WSUDLCL2, 72 h, three-day assay, read-out: IC50 (nM) WSU-DLCL2): 54 nM
IC50 ([20]; WSUDLCL2, Human DLBCL-GCB, read-out: IC50): 160 nM
